PubChem BioAssay (NCI)
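Tested at 5 concentrations; 48 h exposure; 96-well plates; endpoints linearly interpolated, else capped at highest concentration. Abbreviation: GI50, concentration required for 50% inhibition of growth. TGI is the concentration that stops growth completely.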

Assays:
Experiment in all cases: DTP human tumour cell line panel, 48 h
HOP-62 NSCLC = tested on: HOP-62 NSCLC
NCI/ADR-RES ovarian = tested on: NCI/ADR-RES ovarian
HT29 colon = tested on: HT29 colon
786-0 renal = tested on: 786-0 renal
COLO 205 colon = tested on: COLO 205 colon
RPMI-8226 leukemia = tested on: RPMI-8226 leukemia
U251 CNS = tested on: U251 CNS
UACC-62 melanoma = tested on: UACC-62 melanoma
SF-539 CNS = tested on: SF-539 CNS
TK-10 renal = tested on: TK-10 renal
DU-145 prostate = tested on: DU-145 prostate
SK-MEL-5 melanoma = tested on: SK-MEL-5 melanoma
HL-60(TB) leukemia = tested on: HL-60(TB) leukemia
RXF 393 renal = tested on: RXF 393 renal
SNB-19 CNS = tested on: SNB-19 CNS
UO-31 renal = tested on: UO-31 renal
NCI-H522 lung = tested on: NCI-H522 lung
K-562 leukemia = tested on: K-562 leukemia
HCT-116 colon = tested on: HCT-116 colon
HOP-92 NSCLC = tested on: HOP-92 NSCLC
MOLT-4 leukemia = tested on: MOLT-4 leukemia
ACHN renal = tested on: ACHN renal
OVCAR-5 ovarian = tested on: OVCAR-5 ovarian
T-47D breast = tested on: T-47D breast
NCI-H460 lung = tested on: NCI-H460 lung
LOX IMVI melanoma = tested on: LOX IMVI melanoma
UACC-257 melanoma = tested on: UACC-257 melanoma
HCC-2998 colon = tested on: HCC-2998 colon
SNB-75 CNS = tested on: SNB-75 CNS
HS 578T breast = tested on: HS 578T breast
CAKI-1 renal = tested on: CAKI-1 renal
IGROV1 ovarian = tested on: IGROV1 ovarian
OVCAR-3 ovarian = tested on: OVCAR-3 ovarian
KM12 colon = tested on: KM12 colon
SF-295 CNS = tested on: SF-295 CNS
PC-3 prostate = tested on: PC-3 prostate
SK-MEL-28 melanoma = tested on: SK-MEL-28 melanoma
NCI-H23 lung = tested on: NCI-H23 lung
BT-549 breast = tested on: BT-549 breast
A498 renal = tested on: A498 renal
HCT-15 colon = tested on: HCT-15 colon
SK-OV-3 ovarian = tested on: SK-OV-3 ovarian
OVCAR-8 ovarian = tested on: OVCAR-8 ovarian
MCF7 breast = tested on: MCF7 breast
NCI-H226 lung = tested on: NCI-H226 lung
A549 NSCLC = tested on: A549 NSCLC
M14 melanoma = tested on: M14 melanoma
EKVX NSCLC = tested on: EKVX NSCLC
MALME-3M melanoma = tested on: MALME-3M melanoma
SK-MEL-2 melanoma = tested on: SK-MEL-2 melanoma
MDA-MB-231 breast = tested on: MDA-MB-231 breast
SF-268 CNS = tested on: SF-268 CNS
SW-620 colon = tested on: SW-620 colon
SR leukemia = tested on: SR leukemia
CCRF-CEM leukemia = tested on: CCRF-CEM leukemia
SN12C renal = tested on: SN12C renal
OVCAR-4 ovarian = tested on: OVCAR-4 ovarian
MDA-MB-435 = tested on: MDA-MB-435

CN(C)c1ccc(/C=C/C(=O)c2ccc(Nc3nc(Nc4ccc(F)cc4)nc(Nc4ccc(F)cc4)n3)cc2)cc1
GI50 (HOP-62 NSCLC): 17.7 µM | TGI (HOP-62 NSCLC): 47.4 µM | GI50 (NCI/ADR-RES ovarian): 4.39 µM | TGI (NCI/ADR-RES ovarian): 30.7 µM | GI50 (HT29 colon): 15.5 µM | TGI (HT29 colon): 66.6 µM | GI50 (786-0 renal): 14.9 µM | TGI (786-0 renal): 45.8 µM | GI50 (COLO 205 colon): 5.16 µM | TGI (COLO 205 colon): 24.8 µM | GI50 (RPMI-8226 leukemia): 7.62 µM | TGI (RPMI-8226 leukemia): > 100 µM | GI50 (U251 CNS): 17.2 µM | TGI (U251 CNS): 55.1 µM | GI50 (UACC-62 melanoma): 27.4 µM | TGI (UACC-62 melanoma): > 100 µM | GI50 (SF-539 CNS): 19 µM | TGI (SF-539 CNS): 44.6 µM | GI50 (TK-10 renal): 28.7 µM | TGI (TK-10 renal): > 100 µM | GI50 (DU-145 prostate): 25.1 µM | TGI (DU-145 prostate): 91.6 µM | GI50 (SK-MEL-5 melanoma): 7.65 µM | TGI (SK-MEL-5 melanoma): 23.9 µM | GI50 (HL-60(TB) leukemia): 12.2 µM | TGI (HL-60(TB) leukemia): > 100 µM | GI50 (RXF 393 renal): 7.84 µM | TGI (RXF 393 renal): 26.1 µM | GI50 (SNB-19 CNS): 29.6 µM | TGI (SNB-19 CNS): > 100 µM | GI50 (UO-31 renal): 15.2 µM | TGI (UO-31 renal): 40.4 µM | GI50 (NCI-H522 lung): 16.2 µM | TGI (NCI-H522 lung): 58.4 µM | GI50 (K-562 leukemia): 12.7 µM | TGI (K-562 leukemia): > 100 µM | GI50 (HCT-116 colon): 11.4 µM | TGI (HCT-116 colon): 32.4 µM | GI50 (HOP-92 NSCLC): 4.94 µM | TGI (HOP-92 NSCLC): 24 µM | GI50 (MOLT-4 leukemia): 6.48 µM | TGI (MOLT-4 leukemia): 63 µM | GI50 (ACHN renal): 27.4 µM | TGI (ACHN renal): > 100 µM | GI50 (OVCAR-5 ovarian): 34.4 µM | TGI (OVCAR-5 ovarian): > 100 µM | GI50 (T-47D breast): 6.73 µM | TGI (T-47D breast): 51.7 µM | GI50 (NCI-H460 lung): 22 µM | TGI (NCI-H460 lung): > 100 µM | GI50 (LOX IMVI melanoma): 19 µM | TGI (LOX IMVI melanoma): 50.7 µM | GI50 (UACC-257 melanoma): 22.5 µM | TGI (UACC-257 melanoma): 90.9 µM | GI50 (HCC-2998 colon): 11 µM | TGI (HCC-2998 colon): 32.5 µM | GI50 (SNB-75 CNS): 13.8 µM | TGI (SNB-75 CNS): 39 µM | GI50 (HS 578T breast): 14.4 µM | TGI (HS 578T breast): 51.9 µM | GI50 (CAKI-1 renal): 21.8 µM | TGI (CAKI-1 renal): 63.3 µM | GI50 (IGROV1 ovarian): 16.7 µM | TGI (IGROV1 ovarian): 45 µM | GI50 (OVCAR-3 ovarian): 16.8 µM | TGI (OVCAR-3 ovarian): 46 µM | GI50 (KM12 colon): 19 µM | TGI (KM12 colon): 75.2 µM | GI50 (SF-295 CNS): 15 µM | TGI (SF-295 CNS): 41.3 µM | GI50 (PC-3 prostate): 6.56 µM | TGI (PC-3 prostate): 80.2 µM | GI50 (SK-MEL-28 melanoma): 17 µM | TGI (SK-MEL-28 melanoma): 75.5 µM | GI50 (NCI-H23 lung): 19.6 µM | TGI (NCI-H23 lung): 68.6 µM | GI50 (BT-549 breast): 13.5 µM | TGI (BT-549 breast): 43.6 µM | GI50 (A498 renal): 13 µM | TGI (A498 renal): 30.8 µM | GI50 (HCT-15 colon): 19.4 µM | TGI (HCT-15 colon): > 100 µM | GI50 (SK-OV-3 ovarian): 14.7 µM | TGI (SK-OV-3 ovarian): 55.7 µM | GI50 (OVCAR-8 ovarian): 11.6 µM | TGI (OVCAR-8 ovarian): 40.3 µM | GI50 (MCF7 breast): 17.6 µM | TGI (MCF7 breast): > 100 µM | GI50 (NCI-H226 lung): 23.4 µM | TGI (NCI-H226 lung): 78.8 µM | GI50 (A549 NSCLC): 12.8 µM | TGI (A549 NSCLC): 34.2 µM | GI50 (M14 melanoma): 11.2 µM | TGI (M14 melanoma): 34.6 µM | GI50 (EKVX NSCLC): 19.9 µM | TGI (EKVX NSCLC): 83 µM | GI50 (MALME-3M melanoma): 19.1 µM | TGI (MALME-3M melanoma): 78.9 µM | GI50 (SK-MEL-2 melanoma): 14.2 µM | TGI (SK-MEL-2 melanoma): 52.5 µM | GI50 (MDA-MB-231 breast): 13.5 µM | TGI (MDA-MB-231 breast): 46.4 µM | GI50 (SF-268 CNS): 24.9 µM | TGI (SF-268 CNS): > 100 µM | GI50 (SW-620 colon): 18 µM | TGI (SW-620 colon): 46 µM | GI50 (SR leukemia): 7.12 µM | TGI (SR leukemia): > 100 µM | GI50 (CCRF-CEM leukemia): 5.61 µM | TGI (CCRF-CEM leukemia): > 100 µM | GI50 (SN12C renal): 43 µM | TGI (SN12C renal): > 100 µM | GI50 (OVCAR-4 ovarian): 15 µM | TGI (OVCAR-4 ovarian): 53.4 µM | GI50 (MDA-MB-435): 3.49 µM | TGI (MDA-MB-435): 25.4 µM
